# Measurements reported in patent US5476847A, “Derivatives of phosphinic acid useful as endothelin converting enzyme inhibitors” (priority 1994, dated 1995).
# Structures can show the parent of a compound that is named as a salt. Ends that are not written are not given here.
# Key:
# ECE = test: BET Challenge Method (pressor response to BET-1 in anesthetized rats); conditions: BET-1 5 μg/kg
# Experimental: ECE in vivo activity is determined as described by Vemulapalli et al.,in Life Sciences, 53 (1993), pp. 783-793. Briefly, male Charles River CD rats (Wilmington, Mass.) weighing 250-275 g are anesthetized with Inactin, 100 mg/kg, ip. The trachea is catheterized. The right carotid artery and the right jugular vein are cannulated to record blood pressure (BP) and to infuse drugs, respectively. […] The rectal temperature is kept at 37° C. After an equilibration period of 15-30 min, the rats are infused with saline vehicle (20 μl/min) or test compounds (0.01-0.25 mg/kg/min) throughout the study. Thirty minutes after the start of infusion, the rats are challenged with BET-1 (5 μg/kg) via the venous catheter, and the BP is monitored for another 15 min.
# [1] = S. Bertenshaw, et al, J. Med. Chem., 36(1993); cited from earlier work
# [2] = tested on: I/H-induced ET-1 release in isolated perfused guinea pig lungs; test: Isolated Perfused Guinea Pig Lung Method (ischemia/hypoxia, I/H); type: in vivo; conditions: for elevation in PIP produced by I/H (FIG. 4): subcutaneous
# Experimental: The method is as described by Vemulapalli et al., in J. PharmacoL Exp. Therap., 262, 3 (1992), pp. 1062-1069. Briefly, male Dunkin-Hartley guinea pigs (400-600 g) are anesthetized with pentobarbital 30 mg/kg, ip. The trachea is cannulated to facilitate respiration. The right jugular vein is cannulated to administer saline vehicle or test compound, or compounds are administered orally or subcutaneously. Ten minutes after the administration of saline vehicle or test compound, a thoracotomy is performed and the trachea, lungs and heart are removed intact and placed in warmed Tyrode's buffer (34°-35° C.) of the following composition in mM: NaCl 120, KCl 4.8, MgSO4.7H2 O 1.2, KH2 PO4 1.2, NaHCO3 25, CaCl2.2H2 O […], glucose 11 and BSA 0.5%. The pulmonary artery and trachea are cannulated and the lungs are mounted on a perfusion apparatus. Lungs are perfused at a rate of 3.2 ml/min via the pulmonary artery with oxygenated (95% O 2 and 5% CO2) Tyrode's solution maintained at 34°-35° C. The lungs are mechanically ventilated with room air with a volume of 2.5 ml/stroke and 50 strokes/min. Pulmonary insufflation pressure (PIP) is monitored through a side arm of the perfusion apparatus with a Statham pressure transducer and recorded on a Grass polygraph. Lungs are allowed to stabilize for 15 min. Lung effluents (50 ml) are collected every 15 min into chilled polypropylene centrifuge tubes (Corning) containing 100 μl each of aprotinin (200 kallikrein inhibitory units/ml) and soybean trypsin inhibitor (20N-α-benzoyl-L-arginine ethyl ester units/ml). Ischemia-hypoxia (I/H) is produced by cessation of ventilation and perfusion for 15 min followed by reperfusion and reventilation for 60 min. At the end of the experiment, the lungs are tested for cardiopulmonary reactivity by challenging with 5-hydroxy-tryptamine (0.5 mg) directly into the lungs via a pulmonary artery cannula.
# In a separate study, anesthetized guinea pigs are administered saline vehicle or test compound. Ten minutes later, the lungs are removed and mounted on a perfusion apparatus as described above. After an equilibration period of 15 min, BET-1 (30 μg over 15 min) or ET-1 (0.6 μg over 15 min) is infused directly into the perfusion medium and the effects on PIP in vehicle and test compound-treated guinea pig lungs are assessed.
# FIGS. 3 to 6 show the results of four compounds of the invention on I/H-induced ET-1 release in isolated perfused guinea pig lungs. The compounds include Compounds A and B, identified above, and: […]
compound,measurement,setting,value
"CS(=O)(=O)N[C@@H](CCCCN)C(=O)N[C@@H](Cc1ccccc1)P(=O)(O)CC1(C(=O)N[C@@H](Cc2c[nH]c3ccccc23)C(=O)[O-])CCCC1.[Li+] [Example 5, N-[[1-[[hydroxy-[1(R)-[[6-amino-2(S)-[(methylsulfonyl)amino]-1-oxohexyl]-amino]-2-phenylethyl]phosphinyl]methyl]cyclopentyl]carbonyl]-L-tryptophan lithium salt]","lower blood pressure in response to the BET-1 challenge, compared to vehicle (FIG. 1)",ECE; 0.1 mg/kg/min infusion,~15 mmHg
"ET-1: endothelin-1, peptide with potent vasoconstrictive and mitogenic activity (CSCSSLMDKECVYFCHLDIIW; ends and bridges not checked; cysteine pairing not given here; UniProt P05305 53-73, looked up)",times more potent than its precursor big-endothelin-1 (BET-1),[1],approximately 100 times
"CC(C)CC(CP(=O)(O)C(Cc1ccc2ccccc2c1)NC(=O)[C@H](CCCCNC(=O)OCc1ccccc1)NS(C)(=O)=O)C(=O)N[C@@H](Cc1c[nH]c2ccccc12)C(=O)O (stereo partly drawn) [Compound B, N-[2-[[hydroxy[1-[[2(S)-[(methylsulfonyl)amino]-1-oxo-6-[[phenylmethoxy)-carbonyl]amino]hexyl]amino]-2-(2-naphthalenyl)ethyl]phosphinyl]methyl]-4-methyl-1-oxopentyl]-L-tryptophan disodium salt]","effect on blood pressure response to BET-1 challenge, compared to vehicle (FIG. 2)","ECE; 0.1 mg/kg/min infusion, result in words",does not have an effect
same,"lower blood pressure in response to the BET-1 challenge, compared to vehicle (FIG. 2)",ECE; 0.3 mg/kg/min infusion,~22 mmHg
same,elevation in PIP produced by I/H (FIG. 4),"[2]; 3 mg/kg, 1 hour",attenuated
same,elevation in PIP produced by I/H (FIG. 4),"[2]; 10 mg/kg, 6 hours",attenuated
same,elevation in PIP produced by I/H (FIG. 4),"[2]; 30 mg/kg, 6 hours",attenuated
"CC(C)CC(CP(=O)(O)C(Cc1ccccc1)NC(=O)C(CC(C)C)NC(=O)OCc1ccccc1)C(=O)NC(Cc1c[nH]c2ccccc12)C(=O)O (centres unmarked) [Compound D, N-[2-[[hydroxy[2-[1-[4-methyl-1-oxo-2-[[(phenylmethoxy)carbonyl]amino]pentyl]amino]-2-phenylethyl]phosphinyl]methyl]-4-methyl-1-oxopentyl]-tryptophan]",ET-1 release following I/H (FIG. 6),"[2]; iv, 10 mg/kg",attenuation
